Experimental data as given in the supplement of paper PMC4862054.

test system: MFM-223; test: normalised response (% of control), CellTiter-Glo; higher = more viable cells (100 = DMSO, 0 = benzethonium chloride kill control); settings: incubation time: 72 h
Outline: (§1)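 Plates were normalised with 0.1 % DMSO as 100 and a positive kill control as 0. Breast cancer cell lines in 20 µl suspension had been seeded into 384-well plates with compound at 5 concentrations in 10-fold steps over a compound-specific 10,000-fold range, incubated 72 h, and read for CellTox Green fluorescence (485/520 nm) followed by CellTiter-Glo luminescence. Each value is the normalised signal at a single concentration.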

`COc1cc2ncnc(Nc3ccc(F)c(Cl)c3)c2cc1NC(=O)/C=C/CN1CCCCC1` [Dacomitinib] (0.1 nM) and `COc1cc2nccc(Oc3ccc(NC(=O)C4(C(=O)Nc5ccc(F)cc5)CC4)cc3)c2cc1OC` [Cabozantinib] (1 nM) are the same in normalised response: 102% for the first, 102% for the second.

In the case of `CCCCCCCCCCCCCCCCCCOP(=O)([O-])OC1CC[N+](C)(C)CC1` [Perifosine] (0.25 nM), the normalised response is reported as 92.3%.

test system: MDA-MB-231; test: as above; settings: incubation time: 72 h
Outline: as §1

First: N.N.[Cl][Pt][Cl] [Cisplatin] (0.1 nM)
Second: NC(=O)Nc1cc(-c2cccc(F)c2)sc1C(=O)N[C@H]1CCCNC1 [AZD7762] (1 nM)
The normalised response of the first is lower: 99.7% for the first, 103% for the second.

`Cc1ccc(C(=O)Nc2ccc(CN3CCN(C)CC3)c(C(F)(F)F)c2)cc1C#Cc1cnc2cccnn12` [Ponatinib] (1 nM) and `N#CCNC(=O)c1ccc(-c2ccnc(Nc3ccc(N4CCOCC4)cc3)n2)cc1` [Momelotinib] (1 nM) are the same in normalised response: 97.2% for the first, 97.2% for the second.

Compared with `N[C@@H](CSC(c1ccccc1)(c1ccccc1)c1ccccc1)C(=O)O` [S-trityl-L-cysteine] (40 nM), `CC(=O)Nc1ccc(C(=O)Nc2ccccc2N)cc1` [Tacedinaline] (1 nM) is higher in normalised response: 90.4% for the first, 97.6% for the second.

First: C[C@]12CC[C@@H]3c4ccc(O)cc4C[C@@H](CCCCCCCCC[S+]([O-])CCCC(F)(F)C(F)(F)F)[C@H]3[C@@H]1CC[C@@H]2O (some centres not stated) [Fulvestrant] (0.1 nM)
Second: CCCCCCCCCCCCCCCCCCOP(=O)([O-])OC1CC[N+](C)(C)CC1 [Perifosine] (0.25 nM)
The normalised response of the first is higher: 100% for the first, 99.6% for the second.

First: CO[C@H]1/C=C\C=C(/C)C(=O)NC2=CC(=O)C(NCCN(C)C)=C(C[C@@H](C)C[C@H](OC)[C@H](O)[C@@H](C)/C=C(\C)[C@@H]1OC(N)=O)C2=O [Alvespimycin] (1 nM)
Second: COc1cc2nccc(Oc3ccc(NC(=O)C4(C(=O)Nc5ccc(F)cc5)CC4)cc3)c2cc1OC [Cabozantinib] (1 nM)
The normalised response of the first is lower: 102% for the first, 104% for the second.

In the case of `COc1cc2ncnc(Nc3ccc(F)c(Cl)c3)c2cc1NC(=O)/C=C/CN1CCCCC1` [Dacomitinib] (0.1 nM), the normalised response is reported as 102%.

test system: Hs578T; test: as above; settings: incubation time: 72 h
Outline: as §1

First: N.N.[Cl][Pt][Cl] [Cisplatin] (0.1 nM)
Second: NC(=O)Nc1cc(-c2cccc(F)c2)sc1C(=O)N[C@H]1CCCNC1 [AZD7762] (1 nM)
The normalised response of the first is higher: 102% for the first, 101% for the second.

Compared with `Cc1ccc(C(=O)Nc2ccc(CN3CCN(C)CC3)c(C(F)(F)F)c2)cc1C#Cc1cnc2cccnn12` [Ponatinib] (1 nM), `N#CCNC(=O)c1ccc(-c2ccnc(Nc3ccc(N4CCOCC4)cc3)n2)cc1` [Momelotinib] (1 nM) is lower in normalised response: 97.3% for the first, 97.2% for the second.

Going from `N[C@@H](CSC(c1ccccc1)(c1ccccc1)c1ccccc1)C(=O)O` [S-trityl-L-cysteine] (40 nM) to `CC(=O)Nc1ccc(C(=O)Nc2ccccc2N)cc1` [Tacedinaline] (1 nM), the normalised response rises from 94.3% to 96%.

Compared with `C[C@]12CC[C@@H]3c4ccc(O)cc4C[C@@H](CCCCCCCCC[S+]([O-])CCCC(F)(F)C(F)(F)F)[C@H]3[C@@H]1CC[C@@H]2O` (some centres not stated) [Fulvestrant] (0.1 nM), `CCCCCCCCCCCCCCCCCCOP(=O)([O-])OC1CC[N+](C)(C)CC1` [Perifosine] (0.25 nM) is lower in normalised response: 112% for the first, 108% for the second.

First: CO[C@H]1/C=C\C=C(/C)C(=O)NC2=CC(=O)C(NCCN(C)C)=C(C[C@@H](C)C[C@H](OC)[C@H](O)[C@@H](C)/C=C(\C)[C@@H]1OC(N)=O)C2=O [Alvespimycin] (1 nM)
Second: COc1cc2nccc(Oc3ccc(NC(=O)C4(C(=O)Nc5ccc(F)cc5)CC4)cc3)c2cc1OC [Cabozantinib] (1 nM)
The normalised response of the first is lower: 101% for the first, 102% for the second.

`COc1cc2ncnc(Nc3ccc(F)c(Cl)c3)c2cc1NC(=O)/C=C/CN1CCCCC1` [Dacomitinib] (0.1 nM) gave a normalised response of 98.5%.

test system: DU-4475; test: as above; settings: incubation time: 72 h
Outline: as §1

Going from `N.N.[Cl][Pt][Cl]` [Cisplatin] (0.1 nM) to `NC(=O)Nc1cc(-c2cccc(F)c2)sc1C(=O)N[C@H]1CCCNC1` [AZD7762] (1 nM), the normalised response rises from 92% to 104%.

Going from `Cc1ccc(C(=O)Nc2ccc(CN3CCN(C)CC3)c(C(F)(F)F)c2)cc1C#Cc1cnc2cccnn12` [Ponatinib] (1 nM) to `N#CCNC(=O)c1ccc(-c2ccnc(Nc3ccc(N4CCOCC4)cc3)n2)cc1` [Momelotinib] (1 nM), the normalised response falls from 100% to 95.3%.

Compared with `N[C@@H](CSC(c1ccccc1)(c1ccccc1)c1ccccc1)C(=O)O` [S-trityl-L-cysteine] (40 nM), `CC(=O)Nc1ccc(C(=O)Nc2ccccc2N)cc1` [Tacedinaline] (1 nM) is lower in normalised response: 101% for the first, 97.6% for the second.

Compared with `C[C@]12CC[C@@H]3c4ccc(O)cc4C[C@@H](CCCCCCCCC[S+]([O-])CCCC(F)(F)C(F)(F)F)[C@H]3[C@@H]1CC[C@@H]2O` (some centres not stated) [Fulvestrant] (0.1 nM), `CCCCCCCCCCCCCCCCCCOP(=O)([O-])OC1CC[N+](C)(C)CC1` [Perifosine] (0.25 nM) is lower in normalised response: 102% for the first, 92.7% for the second.

First: CO[C@H]1/C=C\C=C(/C)C(=O)NC2=CC(=O)C(NCCN(C)C)=C(C[C@@H](C)C[C@H](OC)[C@H](O)[C@@H](C)/C=C(\C)[C@@H]1OC(N)=O)C2=O [Alvespimycin] (1 nM)
Second: COc1cc2nccc(Oc3ccc(NC(=O)C4(C(=O)Nc5ccc(F)cc5)CC4)cc3)c2cc1OC [Cabozantinib] (1 nM)
The normalised response of the first is higher: 105% for the first, 101% for the second.

In the case of `COc1cc2ncnc(Nc3ccc(F)c(Cl)c3)c2cc1NC(=O)/C=C/CN1CCCCC1` [Dacomitinib] (0.1 nM), the normalised response is reported as 95.3%.

test system: HCC1143; test: as above; settings: incubation time: 72 h
Outline: as §1

First: N.N.[Cl][Pt][Cl] [Cisplatin] (0.1 nM)
Second: NC(=O)Nc1cc(-c2cccc(F)c2)sc1C(=O)N[C@H]1CCCNC1 [AZD7762] (1 nM)
The normalised response of the first is lower: 95.2% for the first, 103% for the second.

Going from `Cc1ccc(C(=O)Nc2ccc(CN3CCN(C)CC3)c(C(F)(F)F)c2)cc1C#Cc1cnc2cccnn12` [Ponatinib] (1 nM) to `N#CCNC(=O)c1ccc(-c2ccnc(Nc3ccc(N4CCOCC4)cc3)n2)cc1` [Momelotinib] (1 nM), the normalised response rises from 97.1% to 97.6%.

Compared with `N[C@@H](CSC(c1ccccc1)(c1ccccc1)c1ccccc1)C(=O)O` [S-trityl-L-cysteine] (40 nM), `CC(=O)Nc1ccc(C(=O)Nc2ccccc2N)cc1` [Tacedinaline] (1 nM) is higher in normalised response: 92.7% for the first, 99.5% for the second.

Compared with `C[C@]12CC[C@@H]3c4ccc(O)cc4C[C@@H](CCCCCCCCC[S+]([O-])CCCC(F)(F)C(F)(F)F)[C@H]3[C@@H]1CC[C@@H]2O` (some centres not stated) [Fulvestrant] (0.1 nM), `CCCCCCCCCCCCCCCCCCOP(=O)([O-])OC1CC[N+](C)(C)CC1` [Perifosine] (0.25 nM) is higher in normalised response: 95.3% for the first, 103% for the second.

First: CO[C@H]1/C=C\C=C(/C)C(=O)NC2=CC(=O)C(NCCN(C)C)=C(C[C@@H](C)C[C@H](OC)[C@H](O)[C@@H](C)/C=C(\C)[C@@H]1OC(N)=O)C2=O [Alvespimycin] (1 nM)
Second: COc1cc2nccc(Oc3ccc(NC(=O)C4(C(=O)Nc5ccc(F)cc5)CC4)cc3)c2cc1OC [Cabozantinib] (1 nM)
The normalised response of the first is lower: 97.5% for the first, 99.1% for the second.

Compound `COc1cc2ncnc(Nc3ccc(F)c(Cl)c3)c2cc1NC(=O)/C=C/CN1CCCCC1` [Dacomitinib] (0.1 nM) has a normalised response of 107%.

test system: CAL-120; test: as above; settings: incubation time: 72 h
Outline: as §1

Going from `N.N.[Cl][Pt][Cl]` [Cisplatin] (0.1 nM) to `Cc1ccc(C(=O)Nc2ccc(CN3CCN(C)CC3)c(C(F)(F)F)c2)cc1C#Cc1cnc2cccnn12` [Ponatinib] (1 nM), the normalised response rises from 102% to 106%.

Compared with `N[C@@H](CSC(c1ccccc1)(c1ccccc1)c1ccccc1)C(=O)O` [S-trityl-L-cysteine] (40 nM), `CC(=O)Nc1ccc(C(=O)Nc2ccccc2N)cc1` [Tacedinaline] (1 nM) is lower in normalised response: 102% for the first, 97.9% for the second.

Work on `N#CCNC(=O)c1ccc(-c2ccnc(Nc3ccc(N4CCOCC4)cc3)n2)cc1` [Momelotinib] (1 nM) yielded a normalised response of 96.9%.
